Test results from paper PMC9260667, “Thioredoxin Reductase Inhibitors as Potential Antitumors: Mercury Compounds Efficacy in Glioma Cells” (Frontiers in Molecular Biosciences, 2022).

What was measured:
[1] = system: GL261 cells; test: ROS production (H2DCFDA assay); assay type: cell-based, mouse; details: GL261, 3 h exposure, 0.5-5 µM
Experimental: The assessment of general ROS production was based on the 2′,7′-dichlorodihydrofluorescein diacetate (H2DCFDA) assay ([Huang et al., 2014]).
Cells (8 × 10^4) were plated in black 96-well microplates and then incubated at 37°C for 24 h. Afterwards, the medium was removed, the cells were washed twice with PBS 1x, and culture media with DHCF-DA ([…]) was added to each well followed by a 40 min incubation at 37°C. After the incubation period, the DHCF-DA containing media was removed and the wells were washed twice with PBS 1x before being replenished with fresh medium. This was followed by exposure of cells to Hg compounds (EtHg and TmHg 0.5; 1, 2.5; and 5 µM) for 3 h using 1 mM H2O2 as a positive control. The fluorescence signal was read in a microplate reader (Zenyth 3100, Anthos Labtec Instruments) using 495 nm as the excitation wavelength and 529 nm as the emission wavelength.

[2] = system: Trx1 and Trx2; test: Trx oxidation state (Redox Western); assay type: cell-based, mouse; details: GL261, 1 µM, 24 h
Experimental: The redox state of Trx1 and Trx2 was evaluated by the quantification of the number of reduced -SH groups (Free -SH), according to the Protein Electrophoretic Mobility Shift Assay ([Bersani et al., 2002]; [Branco et al., 2017]).
Briefly, after exposure to the TmHg and EtHg for 24 h, cell pellets were resuspended in Sample Solution (SS - Tris 50 mM, Urea 8 M, pH 8.3) containing 30 mM of iodoacetic acid (IAA; Sigma) and incubated at 37°C for 30 min to alkylate free thiols. This was followed by centrifugation at 13,000 g for 10 min, and the resulting supernatant was washed 3 times with an acetone/1 M HCl mix (98:2 v/v), followed by centrifugation at 13,000 g for 5 min. After evaporation of the acetone mixture, the resulting pellet was incubated at 37°C for 30 min in a SS solution containing 5 mM of DTT to reduce thiols oxidized by TmHg and EtHg. Posteriorly, these thiols were alkylated with SS containing 10 mM iodoacetamide (IAM; Sigma) at 37°C for 30 min.
Next, the samples were loaded onto a Urea-PAGE gel (stacking gel: 4% acrylamide; run gel: 12% acrylamide; 8 M Urea) and run at 10 mA. After 2 h, the proteins in the gel were transferred to a nitrocellulose membrane blocked with skimmed milk and incubated with respective antibodies - Trx1 rabbit polyclonal IgG (ATRX8, IMCO Corp.), Trx2 rabbit polyclonal IgG (sc-50335, Sta. Cruz) and mouse anti-rabbit IgG-HRP (sc-2357, Sta. Cruz). […]

[3] = system: GL261 cells; test: Guava ViaCount assay, apoptotic cells; assay type: cell-based, mouse; details: GL261, 24 and 48 h exposure
Experimental: The ViaCount Assay was used to distinguish viable and non-viable cells based on the differential permeability of two dyes in the Guava ViaCount Reagent. The membrane-permeant dye stains all nucleated cells, leaving the cellular debris unstained, while the membrane-impermeant dye brightly stains damaged cells, thus indicating apoptotic and dying cells. GL261 cells (6 × 10^4) were seeded for 24 h in 24-well plates and thereafter were exposed to the TmHg and EtHg for 24 and 48 h. Following treatment, cells were collected from plates along with cell culture supernatants and centrifuged for 5 min (650 g). Supernatants were discarded and the cells were resuspended in phosphate-buffered saline (PBS) containing 2% FBS. Subsequently, 15 μL of cell suspension were mixed with 135 μL of Guava ViaCount reagent and incubated for 5 min at room temperature. Sample acquisition and data analysis were performed with the Guava easyCyte 5HT flow cytometer (GuavaTechnologies, Inc., Hayward, CA, United States) using the ViaCount software module.

[4] = target: T1, TrxR (Mus musculus, UniProt Q9JLT4); assay type: cell-based; details: mitochondria, 1 µM, 24 h
T1 construct: These lysates were compared to a control group and used to quantify TrxR and Trx activity and expression; These fractions were used to quantify TrxR and Trx activity and expression; endogenous in cells; host or cells: GL261 mouse glioma cells (whole lysate, cytosolic and mitochondrial fractions)
T1 sequence (Q9JLT4 35-524): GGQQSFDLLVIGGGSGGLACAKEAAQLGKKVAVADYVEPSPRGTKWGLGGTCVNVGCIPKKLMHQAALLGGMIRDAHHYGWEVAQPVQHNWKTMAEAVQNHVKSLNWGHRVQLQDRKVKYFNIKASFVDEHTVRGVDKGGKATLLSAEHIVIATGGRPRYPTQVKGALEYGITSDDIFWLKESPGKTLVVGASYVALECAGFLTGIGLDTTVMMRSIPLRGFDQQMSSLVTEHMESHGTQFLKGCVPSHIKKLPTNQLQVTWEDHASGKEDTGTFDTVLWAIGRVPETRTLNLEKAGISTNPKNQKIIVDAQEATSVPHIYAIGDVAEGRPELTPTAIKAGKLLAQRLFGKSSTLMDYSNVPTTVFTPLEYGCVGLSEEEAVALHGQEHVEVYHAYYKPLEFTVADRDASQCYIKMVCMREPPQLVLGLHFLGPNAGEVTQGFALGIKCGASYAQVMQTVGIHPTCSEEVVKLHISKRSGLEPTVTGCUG
Experimental: (§1) Total cell lysates were prepared according to previous protocols ([Branco et al., 2014]). 1 × 10^6 cells were plated in […] culture dishes incubated at 37°C until reaching 70–80% confluence. At this point, the culture medium was refreshed and TmHg and EtHg (0.5; 1; 2 µM) were added and incubated at 37°C for 24 h, after which cells were collected by trypsinization and washed with PBS 1x. Subsequently, the pellet was resuspended in lysis buffer (25 mM TrisCl, pH 7.5; 100 mM NaCl; 2.5 mM EDTA; 2.5 mM EGTA; 20 mM NaF, 1 mM sodium orthovanadate, 20 mM sodium pyrophosphate; 20 mM of sodium β-glycerophosphate, 0.5% Triton X-100, and 1 tablet of protease inhibitor cocktail per 10 ml; Roche) vortexed and frozen at −20°C. These lysates were compared to a control group and used to quantify TrxR and Trx activity and expression as described below.
(§2) To obtain the mitochondrial and cytosolic fractions, after exposure to Hg compounds cells were washed and suspended in mitochondrial isolation buffer (210 mM mannitol, 70 mM sucrose, 1 mM EDTA, 10 mM Hepes–NaOH, and pH 7.5), containing protease inhibitor cocktail (Roche). Cells were disrupted with a Teflon pestle and then centrifuged at 600 g for 10 min at 4°C. The resulting nuclear pellets were discarded, and the supernatant was further centrifuged at 13,000 g and 4°C for 15 min, to obtain the mitochondrial pellets and the supernatant soluble fraction. Mitochondrial pellets were treated with cell lysis buffer as described above for whole-cell lysates and the supernatant fraction was further centrifuged at 100,000 g and 4°C for 1 h, to produce the cytosolic fraction ([Branco et al., 2014]). These fractions were used to quantify TrxR and Trx activity and expression as described below.
(§3) The enzymatic activity of TrxR and Trx was determined according to the insulin end-point assay described by [Arnér and Holmgren (2000)] with modifications ([Branco et al., 2014]).
(§4) In parallel, control wells were prepared to contain the same reagents previously mentioned apart from Trx. After the incubation period, 250 µL of a 1 mM DTNB solution in 6 M guanidine-HCL (pH 8.0) was added to wells, and absorbance was measured at 412 nm in a microplate reader (Zenyth 3100, Anthos Labtec Instruments). […] The same procedure was done for the determination of Trx activity, but the samples were incubated with 100 nM of recombinant rat TrxR (IMCO Corp, Sweden) instead of Trx ([Branco et al., 2014]).

[5] = system: TrxR; assay type: cell-based, mouse; details: for decrease of TrxR activity: cytosol, 1 µM, 24 h; for IC50: whole-cell lysates, GL261 exposed 24 h
Experimental: as §1, §2, §3, §4

[6] = system: Trx; assay type: cell-based, mouse; details: whole-cell lysates, GL261 exposed 24 h
Experimental: as §1, §2, §3, §4

| SMILES | ROS production [1] | redox states of Trx1 and Trx2 [2] | increase in number of apoptotic cells compared to control [3] | decrease of TrxR activity [4] | decrease of TrxR activity [5] | IC50 [5] | IC50 [6] |
| --- | --- | --- | --- | --- | --- | --- | --- |
| C[CH2][Hg] [EtHg, ethylmercury] | concentration-dependent increase | increasing the oxidation of Cys residues in both isoforms | > 50% | lesser effect | 50% | 800 nM | 1300 nM |
| C[CH2][Hg][S]c1ccccc1C(=O)[O-].[Na+] [TmHg, thimerosal] | concentration-dependent increase | increasing the oxidation of Cys residues in both isoforms | > 50% | 60% | 60% | 700 nM | 700 nM |
